Laboratory results published in patent publication US5094783A, “Retinoid compounds” (UAB Research Foundation, priority 1990, dated 1992).

What was measured:
[1] = molecular target: cellular retinoic acid binding protein (CRABP) from chick embryo skin; experiment: CRABP binding assay, I50 (dextran-coated charcoal); conditions: 50% inhibition of binding of 100 pmoles [3H] retinoic acid to CRABP, chick embryo skin extract (1 mg protein); X=CO2H
Procedure: A standard in vitro cellular retinoic acid binding protein (CRABP) assay was also conducted on the retinoids. The CRABP binding study measured the ability of retinoids to compete for the retinoic acid binding site on CRABP, also a good indicator of retinoid potency as a chemopreventive agent.
(§1) Aliquots (2 mg protein) of chick skin extracts were incubated with 300 pmoles of [^3 H] retinoic acid in the presence or absence of 100-fold molar excesses of the test compounds. The 2S CRABP peaks were determined from the radioactivity profiles obtained after sedimentation through 5 to 20% sucrose density gradients at 180,000×g for 18 hours (Sani et al., supra). […] Free radioactive retinoid was removed by absorption on dextran-coated charcoal. The I50 values of the test compounds were derived from the semilog plots of their molar concentrations versus the specifically bound [^3 H] retinoic acid to CRABP at the different concentrations of the test retinoids.

[2] = test system: ornithine decarboxylase (ODC) induced by TPA in mouse epidermis; experiment: In vivo ODC assay: inhibition of TPA-induced ornithine decarboxylase activity in mouse epidermis; conditions: TPA-induced ODC activity in epidermis of CD-1 mice, single topical application of retinoid 30 to 60 min before TPA, skins collected 5 h after TPA; values normalized to TPA control of 10; X=CO2H
Procedure: An in vivo ODC assay was conducted using four configurational isomers of retinoid 7 with X=CO2 H to study their bioactivities with respect to prevention of tumors. The ODC assay measured the inhibition by retinoids of the induction of ornithine decarboxylase in mouse epidermis by phorbol ester (TPA), an indicator of retinoid potency as a chemopreventive agent.
A single application of TPA was made to the shaved backs of CD-1 mice 30 to 60 minutes after a single application of the test retinoid. Five hours after the application of TPA, the exposed skins from the back of the three animals in each group were collected, and the epidermal extracts prepared from each animal were pooled and assayed. In order to improve the counting efficiency of radio-labeled product formed in the assay, the specific activity of ^14 C-ornithine was increased five-fold; the assay was terminated by the addition of citric acid at 45 minutes to ensure linear kinetics.

[3] = test system: mouse skin papilloma; experiment: Mouse papilloma assay (tumor formation after DMBA initiation); type: in vivo; conditions: initiation with DMBA, X=CO2H
Text: This assay measured the inhibition of tumor formation following initiation with dimethylbenz(a)anthracene (DMBA).

[4] = test system: chick embryo skin CRABP; experiment: CRABP competition by sucrose density gradient sedimentation, 100-fold excess of retinoid; type: binding; conditions: 100-fold molar excess of test compound, 300 pmol [3H] retinoic acid, FIG. 1
Procedure: as §1

| Compound | IC50 [1] [nM] | ODC Assay (nmol CO2/30 min./mg protein) [2] | tumor production, % of controls [3] | inhibition of [3H] retinoic acid-binding to CRABP (relative binding affinity as compared to retinoic acid) [4] [%] |
| --- | --- | --- | --- | --- |
| CC1=C(C(C)C)/C(=C/C(C)=C/C=C/C(C)=C/C(=O)O)CCC1 [(all E)-7] | 400 | 0.5 nmol CO2/30 min./mg protein | 20 % of controls | 100 |
| CC1=C(C(C)C)/C(=C/C(C)=C\C=C\C(C)=C\C(=O)O)CCC1 [(9Z)-7] | 2800 | > 100 nmol CO2/30 min./mg protein | – | 0 |
| CC1=C(/C=C/C(C)=C/C=C/C(C)=C/C(=O)O)C(C)(C)CCC1 [all-E retinoic acid, reference compound] | 900 | 0.5 nmol CO2/30 min./mg protein | 11 % of controls | 100 |
| CC1=C(C(C)C)/C(=C/C(C)=C/C=C/C(C)=C\C(=O)O)CCC1 [(13Z)-7] | 500 | 1.0 nmol CO2/30 min./mg protein | – | 70 |
| CC1=C(C(C)C)/C(=C/C(C)=C\C=C\C(C)=C/C(=O)O)CCC1 [(9Z,13Z)-7] | 4900 | > 100 nmol CO2/30 min./mg protein | – | 0 |
